# Experimental data: US8410161B2, “Thioxanthone ring system derivatives” (National Defense Medical Center, priority 2010, dated 2013)
# Tests used:
# A control cell lines = experiment: MTT assay, A control cell lines (lung cancer cell); format: cell-based
# From the text: Please refer to Table 1 and FIGS. 4A-4C. According to a MTT assay (Table 1), various cell viabilities of the A control cell lines can be obtained and illustrated in FIG. 4A while the compounds No. 2˜30 are used to treat A control cell lines, wherein A control cell lines are lung cancer cell.
# A3 cell lines = experiment: MTT assay, A3 cell lines (lung cancer stem cell); format: cell-based
# From the text: Please to FIG. 4B, various cell viabilities of the A3 cell lines can be obtained through the MTT assay and illustrated in FIG. 4B while the compounds No. 1˜30 are used to treat A3 cell lines, wherein A3 cell lines are lung cancer stem cell.
# CCRF-CEM = experiment: NCI in vitro DTP human cell line screen, CCRF-CEM; format: cell-based; conditions: Leukemia, 1.00E−5 Molar
# Description: (§1) Then, a cell toxicity assay of the cancer lines made by National Cancer Institute will be discussed as follows. The cell toxicity assay is performed by choosing ten compounds (existing certification numbers) from the 59 compounds disclosed in the present invention first.
# K562 = experiment: NCI in vitro DTP human cell line screen, K562; format: cell-based; conditions: Leukemia, 1.00E−5 Molar
# Description: as §1
# MOLT-4 = experiment: NCI in vitro DTP human cell line screen, MOLT-4; format: cell-based; conditions: Leukemia, 1.00E−5 Molar
# Description: as §1
# RPMI-8226 = experiment: NCI in vitro DTP human cell line screen, RPMI-8226; format: cell-based; conditions: Leukemia, 1.00E−5 Molar
# Description: as §1
# SR = experiment: NCI in vitro DTP human cell line screen, SR; format: cell-based; conditions: Leukemia, 1.00E−5 Molar
# Description: as §1
# EKVX = experiment: NCI in vitro DTP human cell line screen, EKVX; format: cell-based; conditions: Non-Small Cell Lung Cancer, 1.00E−5 Molar
# Description: as §1
# HOP-62 = experiment: NCI in vitro DTP human cell line screen, HOP-62; format: cell-based; conditions: Non-Small Cell Lung Cancer, 1.00E−5 Molar
# Description: as §1
# HOP-92 = experiment: NCI in vitro DTP human cell line screen, HOP-92; format: cell-based; conditions: Non-Small Cell Lung Cancer, 1.00E−5 Molar
# Description: as §1
# NCI-H226 = experiment: NCI in vitro DTP human cell line screen, NCI-H226; format: cell-based; conditions: Non-Small Cell Lung Cancer, 1.00E−5 Molar
# Description: as §1
# NCI-H322M = experiment: NCI in vitro DTP human cell line screen, NCI-H322M; format: cell-based; conditions: Non-Small Cell Lung Cancer, 1.00E−5 Molar
# Description: as §1
# NCI-H460 = experiment: NCI in vitro DTP human cell line screen, NCI-H460; format: cell-based; conditions: Non-Small Cell Lung Cancer, 1.00E−5 Molar
# Description: as §1
# COLO 205 = experiment: NCI in vitro DTP human cell line screen, COLO 205; format: cell-based; conditions: Colon Cancer, 1.00E−5 Molar
# Description: as §1
# HCT-15 = experiment: NCI in vitro DTP human cell line screen, HCT-15; format: cell-based; conditions: Colon Cancer, 1.00E−5 Molar
# Description: as §1
# HT29 = experiment: NCI in vitro DTP human cell line screen, HT29; format: cell-based; conditions: Colon Cancer, 1.00E−5 Molar
# Description: as §1
# SW-620 = experiment: NCI in vitro DTP human cell line screen, SW-620; format: cell-based; conditions: Colon Cancer, 1.00E−5 Molar
# Description: as §1
# SF-268 = experiment: NCI in vitro DTP human cell line screen, SF-268; format: cell-based; conditions: CNS Cancer, 1.00E−5 Molar
# Description: as §1
# SNB-19 = experiment: NCI in vitro DTP human cell line screen, SNB-19; format: cell-based; conditions: CNS Cancer, 1.00E−5 Molar
# Description: as §1
# SNB-75 = experiment: NCI in vitro DTP human cell line screen, SNB-75; format: cell-based; conditions: CNS Cancer, 1.00E−5 Molar
# Description: as §1
# U251 = experiment: NCI in vitro DTP human cell line screen, U251; format: cell-based; conditions: CNS Cancer, 1.00E−5 Molar
# Description: as §1
# LOX IMVI = experiment: NCI in vitro DTP human cell line screen, LOX IMVI; format: cell-based; conditions: Melanoma, 1.00E−5 Molar
# Description: as §1
# MALME-3M = experiment: NCI in vitro DTP human cell line screen, MALME-3M; format: cell-based; conditions: Melanoma, 1.00E−5 Molar
# Description: as §1
# MDA-MB-435 = experiment: NCI in vitro DTP human cell line screen, MDA-MB-435; format: cell-based; conditions: Melanoma, 1.00E−5 Molar
# Description: as §1
# SK-MEL-28 = experiment: NCI in vitro DTP human cell line screen, SK-MEL-28; format: cell-based; conditions: Melanoma, 1.00E−5 Molar
# Description: as §1
# UACC-257 = experiment: NCI in vitro DTP human cell line screen, UACC-257; format: cell-based; conditions: Melanoma, 1.00E−5 Molar
# Description: as §1
# UACC-62 = experiment: NCI in vitro DTP human cell line screen, UACC-62; format: cell-based; conditions: Melanoma, 1.00E−5 Molar
# Description: as §1
# IGROV1 = experiment: NCI in vitro DTP human cell line screen, IGROV1; format: cell-based; conditions: Ovarian Cancer, 1.00E−5 Molar
# Description: as §1
# OVCAR-4 = experiment: NCI in vitro DTP human cell line screen, OVCAR-4; format: cell-based; conditions: Ovarian Cancer, 1.00E−5 Molar
# Description: as §1
# OVCAR-5 = experiment: NCI in vitro DTP human cell line screen, OVCAR-5; format: cell-based; conditions: Ovarian Cancer, 1.00E−5 Molar
# Description: as §1
# OVCAR-8 = experiment: NCI in vitro DTP human cell line screen, OVCAR-8; format: cell-based; conditions: Ovarian Cancer, 1.00E−5 Molar
# Description: as §1
# NCI/ADR-RES = experiment: NCI in vitro DTP human cell line screen, NCI/ADR-RES; format: cell-based; conditions: Ovarian Cancer, 1.00E−5 Molar
# Description: as §1
# SK-OV-3 = experiment: NCI in vitro DTP human cell line screen, SK-OV-3; format: cell-based; conditions: Ovarian Cancer, 1.00E−5 Molar
# Description: as §1
# 786-0 = experiment: NCI in vitro DTP human cell line screen, 786-0; format: cell-based; conditions: Renal Cancer, 1.00E−5 Molar
# Description: as §1
# ACHN = experiment: NCI in vitro DTP human cell line screen, ACHN; format: cell-based; conditions: Renal Cancer, 1.00E−5 Molar
# Description: as §1
# RXF 393 = experiment: NCI in vitro DTP human cell line screen, RXF 393; format: cell-based; conditions: Renal Cancer, 1.00E−5 Molar
# Description: as §1
# SN12C = experiment: NCI in vitro DTP human cell line screen, SN12C; format: cell-based; conditions: Renal Cancer, 1.00E−5 Molar
# Description: as §1
# TK-10 = experiment: NCI in vitro DTP human cell line screen, TK-10; format: cell-based; conditions: Renal Cancer, 1.00E−5 Molar
# Description: as §1
# UO-31 = experiment: NCI in vitro DTP human cell line screen, UO-31; format: cell-based; conditions: Renal Cancer, 1.00E−5 Molar
# Description: as §1
# PC-3 = experiment: NCI in vitro DTP human cell line screen, PC-3; format: cell-based; conditions: Prostate Cancer, 1.00E−5 Molar
# Description: as §1
# DU145 = experiment: NCI in vitro DTP human cell line screen, DU145; format: cell-based; conditions: Prostate Cancer, 1.00E−5 Molar
# Description: as §1
# MCF7 = experiment: NCI in vitro DTP human cell line screen, MCF7; format: cell-based; conditions: Breast Cancer, 1.00E−5 Molar
# Description: as §1
# MDA-MB-231/ATCC = experiment: NCI in vitro DTP human cell line screen, MDA-MB-231/ATCC; format: cell-based; conditions: Breast Cancer, 1.00E−5 Molar
# Description: as §1
# HS 578-T = experiment: NCI in vitro DTP human cell line screen, HS 578-T; format: cell-based; conditions: Breast Cancer, 1.00E−5 Molar
# Description: as §1
# BT-549 = experiment: NCI in vitro DTP human cell line screen, BT-549; format: cell-based; conditions: Breast Cancer, 1.00E−5 Molar
# Description: as §1
# T-47D = experiment: NCI in vitro DTP human cell line screen, T-47D; format: cell-based; conditions: Breast Cancer, 1.00E−5 Molar
# Description: as §1
# MDA-MB-468 = experiment: NCI in vitro DTP human cell line screen, MDA-MB-468; format: cell-based; conditions: Breast Cancer, 1.00E−5 Molar
# Description: as §1
# 60 cancer lines = experiment: NCI cell toxicity assay of 60 cancer lines, whole panel summary; format: cell-based, human; conditions: mean over all cell lines; 1.00E−5 Molar
# Description: as §1
smiles,measurement,setting,value
"O=c1c2ccccc2sc2c(Cl)c(SCc3ccc(Cl)cc3)ccc12 [No. 26, 4-Chloro-3-(4-chlorobenzylthio)-9H-thioxanthen-9-one]",cell viabilities of A control cell lines (MTT assay),A control cell lines,96.8 ± 4.29%
same,cell viabilities of A3 cell lines (MTT assay),A3 cell lines,62.4%
same,Growth Percent,CCRF-CEM,92.28%
same,Growth Percent,K562,113.64%
same,Growth Percent,MOLT-4,96.00%
same,Growth Percent,RPMI-8226,91.09%
same,Growth Percent,SR,93.51%
same,Growth Percent,EKVX,110.82%
same,Growth Percent,HOP-62,89.02%
same,Growth Percent,HOP-92,69.89%
same,Growth Percent,NCI-H226,94.77%
same,Growth Percent,NCI-H322M,101.60%
same,Growth Percent,NCI-H460,106.85%
same,Growth Percent,COLO 205,108.87%
same,Growth Percent,HCT-15,104.80%
same,Growth Percent,HT29,103.09%
same,Growth Percent,SW-620,105.00%
same,Growth Percent,SF-268,101.57%
same,Growth Percent,SNB-19,96.85%
same,Growth Percent,SNB-75,96.90%
same,Growth Percent,U251,86.21%
same,Growth Percent,LOX IMVI,97.16%
same,Growth Percent,MALME-3M,105.22%
same,Growth Percent,MDA-MB-435,108.59%
same,Growth Percent,SK-MEL-28,114.10%
same,Growth Percent,UACC-257,92.94%
same,Growth Percent,UACC-62,92.54%
same,Growth Percent,IGROV1,104.47%
same,Growth Percent,OVCAR-4,107.67%
same,Growth Percent,OVCAR-5,102.23%
same,Growth Percent,OVCAR-8,86.47%
same,Growth Percent,NCI/ADR-RES,100.89%
same,Growth Percent,SK-OV-3,97.10%
same,Growth Percent,786-0,106.48%
same,Growth Percent,ACHN,91.82%
same,Growth Percent,RXF 393,109.38%
same,Growth Percent,SN12C,94.51%
same,Growth Percent,TK-10,100.13%
same,Growth Percent,UO-31,89.66%
same,Growth Percent,PC-3,93.28%
same,Growth Percent,DU145,108.56%
same,Growth Percent,MCF7,94.48%
same,Growth Percent,MDA-MB-231/ATCC,95.00%
same,Growth Percent,HS 578-T,108.61%
same,Growth Percent,BT-549,94.67%
same,Growth Percent,T-47D,87.73%
same,Growth Percent,MDA-MB-468,96.96%
same,"Growth Percent, Mean",60 cancer lines,99.47%
"COc1ccc(CSc2ccc3c(=O)c4ccccc4sc3c2Cl)cc1 [No. 27, 4-Chloro-3-(4-methoxybenzylthio)-9H-thioxanthen-9-one]",cell viabilities of A control cell lines (MTT assay),A control cell lines,50.5%
same,inhibition effect on A control cell line (in words),A control cell lines; summary of MTT cell viabilities,inhibition effect
same,cell viabilities of A3 cell lines (MTT assay),A3 cell lines,101 ± 2.95%
same,Growth Percent,CCRF-CEM,89.83%
same,Growth Percent,K562,114.13%
same,Growth Percent,MOLT-4,102.31%
same,Growth Percent,RPMI-8226,103.69%
same,Growth Percent,SR,84.48%
same,Growth Percent,EKVX,114.01%
same,Growth Percent,HOP-62,110.61%
same,Growth Percent,HOP-92,78.71%
same,Growth Percent,NCI-H226,100.46%
same,Growth Percent,NCI-H322M,95.82%
same,Growth Percent,NCI-H460,107.02%
same,Growth Percent,COLO 205,99.12%
same,Growth Percent,HCT-15,104.37%
same,Growth Percent,HT29,108.69%
same,Growth Percent,SW-620,106.98%
same,Growth Percent,SF-268,101.32%
same,Growth Percent,SNB-19,97.16%
same,Growth Percent,SNB-75,97.97%
same,Growth Percent,U251,96.42%
same,Growth Percent,LOX IMVI,101.59%
same,Growth Percent,MALME-3M,107.44%
same,Growth Percent,MDA-MB-435,107.44%
same,Growth Percent,SK-MEL-28,118.75%
same,Growth Percent,UACC-257,100.47%
same,Growth Percent,UACC-62,91.61%
same,Growth Percent,IGROV1,108.76%
same,Growth Percent,OVCAR-4,104.27%
same,Growth Percent,OVCAR-5,103.70%
same,Growth Percent,OVCAR-8,95.58%
same,Growth Percent,NCI/ADR-RES,106.73%
same,Growth Percent,SK-OV-3,107.96%
same,Growth Percent,786-0,100.89%
same,Growth Percent,ACHN,104.71%
same,Growth Percent,RXF 393,117.83%
same,Growth Percent,SN12C,94.49%
same,Growth Percent,TK-10,105.39%
same,Growth Percent,UO-31,102.53%
same,Growth Percent,PC-3,93.39%
same,Growth Percent,DU145,114.70%
same,Growth Percent,MCF7,101.77%
same,Growth Percent,MDA-MB-231/ATCC,96.93%
same,Growth Percent,HS 578-T,124.03%
same,Growth Percent,BT-549,93.21%
same,Growth Percent,T-47D,88.81%
same,Growth Percent,MDA-MB-468,102.80%
same,"Growth Percent, Mean",60 cancer lines,103.13%
